Results as given in patent US20230407243A1, “GENETIC PLATFORM TO INVESTIGATE THE FUNCTIONS OF BACTERIAL DRUG EFFLUX PUMPS” (priority 2022, published 2023).

Assays:
Type in all cases: cell-based, Escherichia coli
EKO-35 araC::emrAB Pore = experiment: MIC susceptibility profiling, porinated efflux platform; conditions: for Fold changes of MICs: EKO-35 araC::emrAB Pore compared to EKO-35-Pore
In short: (§1)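 Strains carry the fhuA ΔC/Δ4L pore integrated between glmS and pstS under a constitutive promoter, with pore activity checked by vancomycin susceptibility. Overnight LB cultures were adjusted in PBS pH 7.4 to OD600 ~1.0 and diluted 1/2000 into MHB II. 2-fold compound titrations were read by OD600 after 18 h at 37 °C.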

EKO-35 araC::macAB Pore = experiment: as above; conditions: for Fold changes of MICs: EKO-35 araC::macAB Pore compared to EKO-35-Pore
In short: as §1

EKO-35 araC::mdtBC Pore = experiment: as above; conditions: for Fold changes of MICs: EKO-35 araC::mdtBC Pore compared to EKO-35-Pore
In short: as §1

EKO-35 araC::emrKY Pore = experiment: as above; conditions: for Fold changes of MICs: EKO-35 araC::emrKY Pore compared to EKO-35-Pore
In short: as §1

EKO-35 araC::acrD Pore = experiment: as above; conditions: for Fold changes of MICs: EKO-35 araC::acrD Pore compared to EKO-35-Pore
In short: as §1

EKO-35 araC::acrB Pore = experiment: as above; conditions: for Fold changes of MICs: EKO-35 araC::acr-B Pore compared to EKO-35-Pore
In short: as §1

EKO-35 araC::mexCD Pore = experiment: as above; conditions: for Fold changes of MICs: EKO-35 araC::mexCD Pore compared to EKO-35-Pore
In short: as §1

[1] = system: EKO-35 araC::acrBD408A Pore; experiment: as above; conditions: for Fold changes of MICs: EKO-35 araC::acrBD408A Pore compared to EKO-35-Pore
In short: as §1

EKO-35 araC::mdtEF Pore = experiment: as above; conditions: for Fold changes of MICs: EKO-35 araC::mdtEF Pore compared to EKO-35-Pore
In short: as §1

EKO-35 araC::acrEF Pore = experiment: as above; conditions: for Fold changes of MICs: EKO-35 araC::acrEF Pore compared to EKO-35-Pore
In short: as §1

EKO-35 araC::emrAB = experiment: MIC susceptibility profiling, efflux platform; conditions: for Fold change of MICs: EKO-35 araC::emrAB compared to EKO-35
In short: (§2)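 Turbidity (OD600, pre-incubation subtracted) defined growth after 18 h at 37 °C in MHB II. The inoculum was diluted 1/2000 from an OD600 ~1.0 PBS suspension of an overnight LB culture. Compounds were run as duplicate twofold dilutions.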

EKO-35 araC::emrKY = experiment: MIC susceptibility profiling, efflux platform; conditions: for Fold change of MICs: EKO-35 araC::emrKY compared to EKO-35
In short: as §2

EKO-35 araC::mdtBC = experiment: MIC susceptibility profiling, efflux platform; conditions: for Fold change of MICs: EKO-35 araC::mdtBC compared to EKO-35
In short: as §2

EKO-35 araC::acrBD408A = experiment: MIC susceptibility profiling, efflux platform; conditions: for Fold change of MICs: EKO-35 araC::acrBD408A compared to EKO-35
In short: as §2

EKO-35 araC::macAB = experiment: MIC susceptibility profiling, efflux platform; conditions: for Fold change of MICs: EKO-35 araC::macAB compared to EKO-35
In short: as §2

EKO-35 araC::acrD = experiment: MIC susceptibility profiling, efflux platform; conditions: for Fold change of MICs: EKO-35 araC::acrD compared to EKO-35
In short: as §2

[2] = system: EKO-35 araC::mexCD (MexCD from P. aeruginosa); experiment: MIC susceptibility profiling, efflux platform; conditions: for Fold change of MICs: EKO-35 araC::mexCD compared to EKO-35
In short: as §2

EKO-35 araC::acrEF = experiment: MIC susceptibility profiling, efflux platform; conditions: for Fold change of MICs: EKO-35 araC::acrEF compared to EKO-35; for Minimum Inhibitory Concentration, EKO-35 araC::acrEF: Table 13A, non-porinated, technical duplicate
In short: as §2

[3] = EKO-35 araC::emrAB Pore, technical duplicate
[4] = EKO-35 araC::macAB Pore, technical duplicate
[5] = EKO-35 araC::mdtBC Pore, technical duplicate
[6] = EKO-35 araC::emrKY Pore, technical duplicate
[7] = Table 14A, porinated, technical duplicate
[8] = EKO-35 araC::mexCD Pore, technical duplicate
[9] = EKO-35 araC::acrBD408A Pore, technical duplicate
[10] = Table 13B, non-porinated, technical duplicate
[11] = Table 13A, non-porinated, technical duplicate

SMILES	Fold changes of MICs (EKO-35 araC::emrAB Pore) [fold]	Minimum inhibitory concentration (EKO-35 araC::emrAB Pore; [3]) [µg/mL]	Fold changes of MICs (EKO-35 araC::macAB Pore) [fold]	Minimum inhibitory concentration (EKO-35 araC::macAB Pore; [4]) [µg/mL]	Fold changes of MICs (EKO-35 araC::mdtBC Pore) [fold]	Minimum inhibitory concentration (EKO-35 araC::mdtBC Pore; [5]) [µg/mL]	Fold changes of MICs (EKO-35 araC::emrKY Pore) [fold]	Fold changes of MICs (EKO-35 araC::acrD Pore) [fold]	Fold changes of MICs (EKO-35 araC::acrB Pore) [fold]	Fold changes of MICs (EKO-35 araC::mexCD Pore) [fold]	Fold changes of MICs (EKO-35 araC::mdtEF Pore) [fold]	Fold changes of MICs (EKO-35 araC::acrEF Pore) [fold]	Fold change of MICs (EKO-35 araC::emrAB) [fold]	Fold change of MICs (EKO-35 araC::emrKY) [fold]	Fold change of MICs (EKO-35 araC::mdtBC) [fold]	Fold change of MICs (EKO-35 araC::acrBD408A) [fold]	Fold change of MICs (EKO-35 araC::macAB) [fold]	Fold change of MICs (EKO-35 araC::acrD) [fold]	Fold change of MICs [2] [fold]	Fold change of MICs (EKO-35 araC::acrEF) [fold]	further results
O=C(Nc1ccccc1C(=O)Nc1nnc(C(F)(F)F)s1)c1ccccc1Cl [compound 19]	1	320	1	320	1	320	1	1	1	1	1	1	1	1	1	1	1	1	1	1	Minimum inhibitory concentration (EKO-35 araC::emrKY Pore; [6]): 320 µg/mL; Minimum inhibitory concentration, EKO-35 araC::acrD Pore (EKO-35 araC::acrD Pore; [7]): 320 µg/mL; Minimum inhibitory concentration, EKO-35 araC::acrB Pore (EKO-35 araC::acrB Pore; [7]): 320 µg/mL; Minimum inhibitory concentration (EKO-35 araC::mexCD Pore; [8]): 320 µg/mL; Minimum inhibitory concentration [1, 9]: 320 µg/mL; Minimum inhibitory concentration, EKO-35 araC::mdtEF Pore (EKO-35 araC::mdtEF Pore; [7]): 320 µg/mL; Minimum inhibitory concentration, EKO-35 araC::acrEF Pore (EKO-35 araC::acrEF Pore; [7]): 320 µg/mL; Minimum Inhibitory Concentration, EKO-35 araC::emrAB (EKO-35 araC::emrAB; [10]): 320 µg/mL; Minimum Inhibitory Concentration, EKO-35 araC::emrKY (EKO-35 araC::emrKY; [10]): 320 µg/mL; Minimum Inhibitory Concentration, EKO-35 araC::mdtBC (EKO-35 araC::mdtBC; [10]): 320 µg/mL; Minimum Inhibitory Concentration, EKO-35 araC::acrBD408A (EKO-35 araC::acrBD408A; [10]): 320 µg/mL; Minimum Inhibitory Concentration, EKO-35 araC::macAB (EKO-35 araC::macAB; [10]): 320 µg/mL; Minimum Inhibitory Concentration, EKO-35 araC::acrD (EKO-35 araC::acrD; [11]): 320 µg/mL; Minimum Inhibitory Concentration, EKO-35 araC::mexCD [2, 10]: 320 µg/mL; Minimum Inhibitory Concentration, EKO-35 araC::acrEF (EKO-35 araC::acrEF): 320 µg/mL
CCn1cc(C(=O)O)c(=O)c2ccc(C)nc21 [nalidixic acid]	8	–	1	–	1	–	1	1	8	2	1	2	8	1	1	1	1	2	2	4	MIC (EKO-35 araC::emrAB Pore; Escherichia coli, EKO-35 araC::emrAB Pore, technical duplicate, read-out: Minimum inhibitory concentration): 10 µg/mL; MIC (EKO-35 araC::macAB Pore; Escherichia coli, EKO-35 araC::macAB Pore, technical duplicate, read-out: Minimum inhibitory concentration): 1.25 µg/mL; MIC (EKO-35 araC::mdtBC Pore; Escherichia coli, EKO-35 araC::mdtBC Pore, technical duplicate, read-out: Minimum inhibitory concentration): 1.25 µg/mL; MIC (EKO-35 araC::emrKY Pore; Escherichia coli, EKO-35 araC::emrKY Pore, technical duplicate, read-out: Minimum inhibitory concentration): 1.25 µg/mL; MIC (EKO-35 araC::acrD Pore; Escherichia coli, Table 14A, porinated, technical duplicate, read-out: Minimum inhibitory concentration, EKO-35 araC::acrD Pore): 1.25 µg/mL; MIC (EKO-35 araC::acrB Pore; Escherichia coli, Table 14A, porinated, technical duplicate, read-out: Minimum inhibitory concentration, EKO-35 araC::acrB Pore): 10 µg/mL; MIC (EKO-35 araC::mexCD Pore; Escherichia coli, EKO-35 araC::mexCD Pore, technical duplicate, read-out: Minimum inhibitory concentration): 2.5 µg/mL; Fold changes of MICs [1]: 1 fold; MIC ([1]; Escherichia coli, EKO-35 araC::acrBD408A Pore, technical duplicate, read-out: Minimum inhibitory concentration): 1.25 µg/mL; MIC (EKO-35 araC::mdtEF Pore; Escherichia coli, Table 14A, porinated, technical duplicate, read-out: Minimum inhibitory concentration, EKO-35 araC::mdtEF Pore): 1.25 µg/mL; efflux pump-mediated resistance vs EKO-35-Pore (EKO-35 araC::acrEF Pore; AcrEF with the pore): impacted the ability of AcrEF to confer resistance; MIC (EKO-35 araC::acrEF Pore; Escherichia coli, Table 14A, porinated, technical duplicate, read-out: Minimum inhibitory concentration, EKO-35 araC::acrEF Pore): 2.5 µg/mL; MIC (EKO-35 araC::emrAB; Escherichia coli, Table 13B, non-porinated, technical duplicate, read-out: Minimum Inhibitory Concentration, EKO-35 araC::emrAB): 10 µg/mL; MIC (EKO-35 araC::emrKY; Escherichia coli, Table 13B, non-porinated, technical duplicate, read-out: Minimum Inhibitory Concentration, EKO-35 araC::emrKY): 1.25 µg/mL; MIC (EKO-35 araC::mdtBC; Escherichia coli, Table 13B, non-porinated, technical duplicate, read-out: Minimum Inhibitory Concentration, EKO-35 araC::mdtBC): 1.25 µg/mL; MIC (EKO-35 araC::acrBD408A; Escherichia coli, Table 13B, non-porinated, technical duplicate, read-out: Minimum Inhibitory Concentration, EKO-35 araC::acrBD408A): 1.25 µg/mL; MIC (EKO-35 araC::macAB; Escherichia coli, Table 13B, non-porinated, technical duplicate, read-out: Minimum Inhibitory Concentration, EKO-35 araC::macAB): 1.25 µg/mL; MIC (EKO-35 araC::acrD; Escherichia coli, Table 13A, non-porinated, technical duplicate, read-out: Minimum Inhibitory Concentration, EKO-35 araC::acrD): 2.5 µg/mL; MIC ([2]; Table 13B, non-porinated, technical duplicate, read-out: Minimum Inhibitory Concentration, EKO-35 araC::mexCD): 2.5 µg/mL
C[n+]1c2cc(N)ccc2cc2ccc(N)cc21.[Cl-] [acriflavine]	2	0.195	2	0.195	1	0.098	1	2	16	4	2	8	1	1	1	1	1	2	8	8	Minimum inhibitory concentration (EKO-35 araC::emrKY Pore; [6]): 0.098 µg/mL; Minimum inhibitory concentration, EKO-35 araC::acrD Pore (EKO-35 araC::acrD Pore; [7]): 0.195 µg/mL; Minimum inhibitory concentration, EKO-35 araC::acrB Pore (EKO-35 araC::acrB Pore; [7]): 1.563 µg/mL; Minimum inhibitory concentration (EKO-35 araC::mexCD Pore; [8]): 0.391 µg/mL; Fold changes of MICs [1]: 1 fold; Minimum inhibitory concentration [1, 9]: 0.098 µg/mL; Minimum inhibitory concentration, EKO-35 araC::mdtEF Pore (EKO-35 araC::mdtEF Pore; [7]): 0.195 µg/mL; Minimum inhibitory concentration, EKO-35 araC::acrEF Pore (EKO-35 araC::acrEF Pore; [7]): 0.781 µg/mL; Minimum Inhibitory Concentration, EKO-35 araC::emrAB (EKO-35 araC::emrAB; [10]): 0.098 µg/mL; Minimum Inhibitory Concentration, EKO-35 araC::emrKY (EKO-35 araC::emrKY; [10]): 0.098 µg/mL; Minimum Inhibitory Concentration, EKO-35 araC::mdtBC (EKO-35 araC::mdtBC; [10]): 0.098 µg/mL; Minimum Inhibitory Concentration, EKO-35 araC::acrBD408A (EKO-35 araC::acrBD408A; [10]): 0.098 µg/mL; Minimum Inhibitory Concentration, EKO-35 araC::macAB (EKO-35 araC::macAB; [10]): 0.098 µg/mL; Minimum Inhibitory Concentration, EKO-35 araC::acrD (EKO-35 araC::acrD; [11]): 0.195 µg/mL; Minimum Inhibitory Concentration, EKO-35 araC::mexCD [2, 10]: 0.781 µg/mL; Minimum Inhibitory Concentration, EKO-35 araC::acrEF (EKO-35 araC::acrEF): 0.781 µg/mL
